In patent US5260330A, “Substituted anilides” (BASF Aktiengesellschaft, priority 1990, dated 1993):
Counter-ions that a name gives are not always drawn.

Tested on: guinea pig hearts
Assay: ECG measurement of QT interval prolongation in isolated guinea pig hearts (Langendorff perfusion)
Parameters: species or system guinea pig (male Duncin-Hartley)
Details: for EC20: Cavia porcellus, 0.25 h, isolated guinea pig heart, Langendorff perfusion, 37° C, cumulative administration at 15 min intervals into the perfusate, ED20% by linear regression of log dose, read-out: ED20% (dose at which there is a 20% increase in the QT interval from the initial figure); for Relative effect ED20% (D-sotalol)/ED20% (Ex.): ratio relative to D-sotalol, QT interval, guinea pig heart
Description: In these the cardiac cycle is divided into systole (contraction of the heart), also called QT interval, and diastole (relaxation of the heart with filling of the ventricles). Repolarization inhibitors increase the QT interval with a negligible effect on the atrioventricular conduction time (PQ interval) and the period of isometric contraction (QRS time, from the start of systole until the semilunar valves open) (see Pschyrembel, 254th edition, 1982).
The activity of the compounds according to the invention as repolarization inhibitors can be investigated in animal experiments by ECG measurements on, for example, guinea pig hearts (see Basic Res. Cardiol. 82 (1987) 437; J. Pharmacol. Methods 21 (1989) 195). Used to compare the activities of a number of substances is, for example, the dose of an agent at which there is a 20% increase in the QT interval from the initial figure (ED20%).This is done by plotting the logarithm of the doses of the particular substances against the experimentally found relative changes in the QT interval, and using linear regression to determine the equation of a straight line from which the ED20% can be calculated.
This method was used to determine the ED20% values for the compounds of Examples 2 and 3 (see Table). D-sotalol was used as comparative substance.
The experimental animals were male Duncin-Hartley guinea pigs with a body weight of 300 to 350 g. 30 min after administration of 1250 I.U. of heparin/kg of body weight into the abdominal cavity, the animals were sacrificed by a blow to the back of the neck. After the common carotid arteries had been cut for exsanguination, the thoracic cavity was opened, and the heart was dissected out and attached to a perfusion apparatus. The Langendorff perfusion was carried out with Krebs-Henseleit solution (NaCl 6896 mg/l; KCl 350 mg/l; MgSO4 285 mg/l; CaCl2 370 mg/l; KH2 PO4 161 mg/l; NaHCO3 2090 mg/l; glucose 2000 mg/l) enriched with oxygen and heated to 37° C. The perfusion volume per unit time was adjusted to 4 to 6 ml/min for a total volume of 100 ml, and the perfusion pressure was adjusted to 60 to 70 mm Hg. Circulating perfusion was carried out after equilibration for 30 min.
The ECG measurements were made via two silver electrodes attached to the surface of the heart in the upper region of the left coronary artery and on the rear of the heart at the level of the valve plane. The PQ and QT intervals, the QRS time and the heart rate were measured.
The substance was administered cumulatively at intervals of 15 min into the perfusate.

Structure (SMILES): CC(C)NCC(O)c1ccc(NS(C)(=O)=O)cc1 [D-sotalol, 4'-[1-hydroxy-2-(isopropylamino)ethyl]methanesulfonanilide, reference compound]
- EC20: 16000 nM

Structure (SMILES): Cc1ccccc1C=CC(=O)Nc1cc(C)c(OCCN2CCCC2)c(C)c1 [Example 2, [3',5'-Dimethyl-4'-(2-(N-pyrrolidinyl)ethoxy)]-(2-methylphenyl)acrylanilidefumarate]
- EC20: 500 nM
- Relative effect ED20% (D-sotalol)/ED20% (Ex.): 32

Structure (SMILES): Cc1ccccc1CCC(=O)Nc1cc(C)c(OCCN2CCCC2)c(C)c1 [Example 3, [3',5'-Dimethyl-4'-(2-(N-pyrrolidinyl)ethoxy)]-3-(2-methylphenyl)propionanilide fumarate]
- EC20: 310 nM
- Relative effect ED20% (D-sotalol)/ED20% (Ex.): 51
